Reference: article PMC9034499, “RORγt agonist enhances anti-PD-1 therapy by promoting monocyte-derived dendritic cells through CXCL10 in cancers” (Journal of Experimental & Clinical Cancer Research : CR, 2022)

What was measured:
[1] = Drug toxicity evaluation by histopathology (H&E staining); format: in vivo, mice; settings: 50 mg/kg or 100 mg/kg i.p. daily for two weeks
Protocol: We further explored the in vivo efficacy of 8-074. First, we conducted a drug toxicity evaluation by histopathology using H&E staining. […] Given the in vivo toxicity and body weight loss during dose escalation, we determined 50 mg/kg for use in the in vivo mechanistic study. The anti-tumor effect of 8-074 was also tested in two other murine syngeneic tumor models (B16F10 and MC38, which are models of melanoma and colon adenocarcinoma, respectively).
Supplementary file 13046_2022_2289_MOESM3_ESM.pdf: Additional file 3: Fig. S3. Selectivity and safety analysis of 8-074. (a) Representative hematoxylin and eosin (H&E) staining micrograph (200 ×) of heart, liver, lung, kidney, spleen, and intestine sections from mice receiving vehicle, 50 mg/kg, or 100 mg/kg 8-074 for two weeks. Scale bar = 100 μm. Vehicle, daily administration of 50 μL DMSO by intraperitoneal injection; 50 mg/kg and 100 mg/kg, daily administration of the corresponding dose (volume less than or equal to 50 μL) by intraperitoneal injection. The cell morphology, number, and distribution in heart, liver, lung, kidney, spleen, and intestine tissues after 8-074 injection were not different from those in the vehicle group. (b and c) Effects of 8-074 on body weight in mice. Data represents the mean ± SD from biological quadruplicates. All error bars represent mean ± SD. Data are from three independent experiments.

mouse Th17 cells = assay: IL-17A secretion by Th17 cells (ELISA); format: cell-based; settings: ELISA of supernatant, 0 to 160 nM
Protocol: CD4^+ CD25^−CD62L^high cells were purified from C57BL/6 splenocytes using an EasySep Mouse Naïve CD4^+ T cell isolation kit from STEMCELL Technologies (Vancouver, Canada), and they were differentiated into Th17 cells (TGF-β, 2 ng/ml; IL-6, 20 ng/ml; Anti-IFN-γ, 10 μg/ml; Anti-IL-4, 10 μg/ml, BioLegend, San Diego, CA) in the presence of plate-bound anti-CD3 (5 μg/ml, BioLegend, San Diego, CA) and anti-CD28 (2 μg/ml, BioLegend, San Diego, CA). The cells were harvested and processed for cytokine analysis at the RNA or protein level using real-time qPCR, flow cytometry, and ELISA on day five. […]
The intracellular cytokines by TILs or in vitro differentiated T helper cells were quantified after restimulation with PMA plus ionomycin in the presence of GolgiStop for 6 h. The total RNA was isolated using the improved TRizol-based (Sigma, Darmstadt, Germany) method for qPCR analysis, and the mRNA expression was analyzed using a StepOnePlus (Life Technologies, Carlsbad, USA) real-time PCR instrument using housekeeping gene β-actin and Gapdh internal standards. qPCR was performed using A Power SYBR Green PCR Master Mix (Accurate Biology, Hunan, China) and two-cycle amplification for 40 cycles followed by the melting curve. […]

[2] = tested on: OVA-pulsed EL-4 lymphoma cells; assay: Ex vivo cytotoxicity assay of Tc17 cells; format: cell-based, mouse; settings: Tc17 cells differentiated from OT-I T cells with 8-074
Protocol: The EL4 cells were pulsed using 50 ng/ml OVA257-264 peptide (SIINFEKL) (Sangon Biotech, Shanghai, China) for 2 h at 37 °C and then labeled with 0.25 μM or 2.5 μM of CFSE (carboxyfluorescein succinimidyl ester; Thermo Fisher Scientific, Massachusetts, America) for 10 min at 37 °C. CFSE^l°^w (SIINFEKL loaded target) and CFSE^high (irrelevant peptide control) EL4 cells were mixed at a 1:1 ratio and then co-cultured with Tc17 cells differentiated from OT-I T cells challenged (or not) with 8-074 at 30:1, 10:1, 3:1, and 1:1 effector to target cell ratios (E: T). The frequencies of the CFSE^l°^w and CFSE^high EL4 cells in the CFSE positive fraction were determined using flow cytometric analysis 18 h after incubation, and the percent of the specific killing was calculated. Specific killing (%) = [1 − (Sample ratio) / (Negative control ratio)] × 100; Sample ratio = [CFSE^l°^w(target)/CFSE^high(irrelevant)] value of each sample co-cultured with Tc17 cells; Negative control ratio = [CFSE^l°^w(target) / CFSE^high (irrelevant)] value of EL4 cells not cultured with Tc17 cells.

CCS(=O)(=O)c1ccc(CC(=O)Nc2ccc(-c3ccc(CC(C)C)c(C#N)c3)c(C(F)(F)F)c2)cc1 [8-074]
histopathology, H&E staining of organs [1]: No noteworthy necrosis or other abnormality was observed | EC50 (mouse Th17 cells): 0.0228 µM | cytotoxic killing activity of treated Tc17 cells [2]: significant increase
